Assay results taken from patent EP3167873A1, “AQUEOUS SOLUTION OF CONDENSATION PRODUCTS OF TAURINAMIDE AND METHYLENE GLYCOL FOR USE AS ANTI-INFECTIVE AGENT IN THE IMPLANTATION OF DEVICES IN CARDIAC SURGERY” (Weis, Christian Edwin, priority 2015, dated 2017).

How the values were obtained:
Infektionen [1] = conditions: irrigation (wound rinsing); cited from earlier work
Infektionen [2] = assay: Clinical use in pacemaker/ICD implantation: device treated and pocket rinsed, infections observed after implantation; type: in vivo, Patienten
Description: Bei der Verwendung wird üblicherweise so vorgegangen, dass die implantierbare Vorrichtung vor der Implantation für die zur Erzielung der gewünschten optimalen antimikrobiellen Wirkung und zur vollständigen Benetzung aller Oberflächen der Vorrichtung erforderliche Zeit, gemäß einer bevorzugten Praxis etwa 20 Minuten, in die Lösung eingelegt wird und danach die implantierbare Vorrichtung, z.B. das Gehäuse eines Herzschrittmachers, mit einem Film der wässrigen Lösung auf ihrer Oberfläche in die vom operierenden Chirurgen vorbereitete Tasche implantiert wird.
Die Tasche wird anschließend mit der restlichen Lösung (ca. 100 ml) gespült.
In einer kardiologischen Station eines akademischen Lehrkrankenhauses, in der routinemäßig und in großer Zahl Patienten Herzschrittmacher implantiert werden, gehörte es zur Praxis, zur Infektionsvermeidung die zu implantierenden Herzschrittmachergehäuse während der Implantation mit einer Lösung von Wasserstoffperoxid zu behandeln, wobei gleichzeitig eine Wundspülung mit Wasserstoffperoxid stattfindet. Dabei kommt es zur Freisetzung von Sauerstoff und starkem Aufschäumen. Trotz der bakteriziden Eigenschaften von verdünntem Wasserstoffperoxid ist die Wirkung der Behandlung als Infektionsprophylaxe bei der Implantation von Geräten nicht verifiziert. […]

ESKAPE Pathogene = conditions: cited from earlier work
[3] = test system: VRE (Vancomycin-resistente Enterokokken); conditions: cited from earlier work
[4] = test system: MRSA (Methicillin-resistenter Staphylococcus aureus); conditions: cited from earlier work
Bakterien = conditions: contact of the solution with microorganisms / contaminated surfaces; cited from earlier work
[5] = design: species or system Patienten; conditions: in vivo
Description: Schrittmacherimplantationen unter erfindungsgemäßer Verwendung einer 2,0 Gew.-%igen wässrigen Taurolidinlösung sind in der nachfolgenden Tabelle 1 tabellarisch erfasst. Die Tabelle gibt dabei die Befunde für 45 Implantationen, einschließlich von 9 Fällen des Austauschs eines Aggregats gegen ein neues, wieder, die im Zeitraum zwischen Februar und September 2015 erfolgten, wobei in allen Fällen die angegebene 2,0 Gew.-%ige wässrige Taurolidinlösung wie beschrieben zur Anwendung kam.

Biofilme = conditions: cited from earlier work

| Molecule | Verbesserung der Infektionsrate (Infektionen [1]) | Infektion (Infektionen [2]; 45 implantations of Tabelle 1 (February to September 2015), 2,0 Gew.-% aqueous Taurolidin solution, observed up to filing date) | Infektionen (Infektionen [2]; pacemaker laid about 20 min in 2,0 Gew.-% Taurolidin solution before implantation, pocket rinsed with rest (ca. 100 ml), comparable number of implantations) | Wirksamkeit (ESKAPE Pathogene) | Wirksamkeit [3] | Wirksamkeit [4] | Kontaktdauer bis zur vollen antibakteriellen Wirkung (Bakterien) | Wundheilung [5] | Wirksamkeit gegen Biofilme (Biofilme) |
| --- | --- | --- | --- | --- | --- | --- | --- | --- | --- |
| Povidon-Iod | keine nennenswerte Verbesserung beobachtet | – | – | – | – | – | – | – | – |
| O=S1(=O)CCN(CN2CCS(=O)(=O)NC2)CN1 [Taurolidin] | – | bei keinem einzigen der Patienten eine Infektion beobachtet | keinerlei Infektionen beobachtet | voll wirksam | voll wirksam | voll wirksam | ≥ 10 Minuten | gute, ungestörte Wundheilung | wirksam |
